In experiment [1] the test system is HbF in human CD34+ HSC. Put plainly: HbF concentration in human CD34+ HSC by ELISA. In kind it is cell-based. Particulars: 7 days of treatment. Here is the method:
Human cord blood CD34+ hematopoietic stem cells (HSC) were first expanded in the expansion medium (StemSpan SFEM II+StemSpan CD34 Expansion Supplement) to achieve the desired number of cells, and then differentiated in differentiation medium (StemSpan SFEM II+StemSpan Erythroid Expansion Supplement (100×)) for three days without drug treatment. Various concentrations of Cpd. 73 were added on the fourth day of differentiation and further incubated with the cells for another 7 days. 33 mM Hydroxyurea was used as the control.
After 7 days of treatment, the cells were collected and lysed. The concentration of HbF in the cell lysate was determined using a Human Fetal Hemoglobin (HBF) ELISA Kit (MyBioSource, MBS2024474). […] The cellular HbF concentration were 1.27-, 1.39-, 1.52-, 1.58- and 1.69-folds of the vehicle group when the cells were treated with 0.01 μM, 0.03 μM, 0.1 μM, 0.3 μM and 1.0 μM Cpd. 73 respectively. […] 73 where the cellular HbF concentration was 1.69-folds of the vehicle group (p<0.01). HbF concentration of cells treated with 33 mM Hydroxyurea was 1.18-folds of the vehicle group. Clinically, small increases of HbF concentration (1-5%) have the potential to provide clinical benefits to all SCD patients.
On the technique in general: An ELISA detects its analyte on a solid surface through an enzyme-linked reagent.

Experiment [2] concerns TNBS induced IBD in Balb/c mice. Put plainly: TNBS induced inflammatory bowel disease (IBD) model. The experiment is classed as in vivo. Here is the method: Female Balb/c mice (8 weeks old) were obtained from Beijing Vital River Laboratory Animal Co. Ltd. Animals, and then housed and handled in a temperature-controlled environment with a 12-h light/12-h dark cycle. A total of 30 mice were assigned to 3 groups by randomization based on body weight.
On Day 0, the mice weighing 18-20 g were anesthetized with […] (Easycheck, M2910), and then further intra-rectally injected 100 μL 1.5% TNBS solution (final concentration in 50% ethanol) in the vehicle group and treatment groups. For the Sham group, the mice were intra-rectally injected with 50% ethanol at the same volume.
Mice in Group 1 and Group 2 were treated with vehicle for 8 days (po, qd, from day −1 to day 6). Mice in Group 3 were treated with 90 mg/kg Cpd. 73 for 8 days (po, qd, from day −1 to day 6). The protocols and procedures involving the care and use of animals were approved by the Institutional Animal Care and Use Committee (IACUC) at WuxiApptec (Shanghai, China).
Clinical signs of IBD were assessed every day based on the score of disease activity index (DAI) which was evaluated from three parameters using a scoring system from 0 to 4: stool consistency (0, normal stool; 1, soft but still formed stool; 2, soft and not formed stool; 3, very soft and wet stool; 4, watery diarrhea), bleeding score (0, negative hemoccult; 1, weak positive hemoccult; 2, positive hemoccult; 3, blood trace in stool visible; 4, gross rectal bleeding) and body weight loss (0, no body weight loos; 1, 1-5% body weight loss; 2, 6-10% body weight loss; 3, 11-20% body weight loss; 4, >20% body weight loss).
At the end of experiment (day 7), the animals were euthanized, dissected and the entire colon was quickly removed and gently cleared of feces.
At the end of experiment, the animals were euthanized, and blood was collected immediately by the heart punctures and used for whole blood cell analysis.
At the end of the study (day 7), the cell suspensions from sham control, model control and Cpd. 73 treatment groups were obtained from mesenteric lymph nodes (MLN). Cells were stained with the following florescence-labelled antibodies: APC-Cy7-conjugated anti-mouse CD45, BV510-conjugated anti-mouse CD3e, AF700-conjugated anti-mouse CD8a, BUV395-conjugated anti-mouse CD4, BV421-conjugated anti-mouse CD25, FITC-conjugated anti-mouse Foxp3, BV650-conjugated anti-mouse IFN-γ, APC-conjugated anti-mouse B220, BV395-conjugated anti-mouse CD3e, BV605-conjugated anti-mouse CD11b, BB700-conjugated anti-mouse CD11c, AF488-conjugated anti-mouse MHCII, BV421-conjugated anti-mouse NK1.1, BV510-conjugated anti-mouse Ly6G, PE-Cy7-conjugated anti-mouse CD107a and PE-CF594-conjugated anti-mouse F4/80. All cells were primarily gated on single and live lymphocytes based on forward scatter (FCS), side scatter (SSC) and live/dead staining buffer. Samples were analyzed on a flow cytometer (BD LSRFortessa) to count the percentage of each subtype of lymphocytes.
At the end of the study (day 7), all the animals were sacrificed by CO2. The colon was Swiss-rolled and fixed with neutralized PFA followed by H&E staining. After that, the pathologists from WuXi clinical pathological analysis platform, who were blinded to animal ID, reviewed the H&E staining and scored. The pathological scoring standards were as follows: crypt architecture (normal, 0; severe crypt distortion with loss of entire crypts, 3), degree of inflammatory cell infiltration (normal, 0; dense inflammatory infiltrate, 3), muscle thickening (normal, 0; marked muscle thickening present, 3), goblet cell depletion (absent, 0; present, 1) and crypt abscess (absent, 0; present, 1).
The fixed colon was stained with Masson's Trichrome to assess the collagen fibers in colon tissue. The Masson's Trichrome staining procedures was followed the standard protocol. After that, the pathological doctors from WuXi clinical pathological analysis platform reviewed the whole slices and scored blinded with animal information. […]

Setting [3] is: 90 mg/kg po qd day −1 to day 6, end of experiment, vs vehicle.
[4] abbreviates: 90 mg/kg po qd day −1 to day 6, vs vehicle.
[5] abbreviates: 90 mg/kg, day 7, flow cytometry, vs vehicle control.

Turning to `CC(C)N1Cc2cc(C(F)(F)F)ncc2-c2cnc(NCc3c(F)ccc4c3CCO4)n3cnc(c23)C1=O` [Cpd. 73, 12-(((5-fluoro-2,3-dihydrobenzofuran-4-yl)methyl)amino)-4-isopropyl-7-(trifluoromethyl)-4,5-dihydro-3H-2,4,8,11,12a-pentaazabenzo[4,5]cycloocta[1,2,3-cd]inden-3-one], the “cellular HbF concentration, folds of the vehicle group” value (“cellular HbF concentration, folds” for short) in experiment [1] (0.01 μM) turned out to be 1.27 folds. Also, the “cellular HbF concentration, folds” value in experiment [1] (0.03 μM) was 1.39 folds. Besides, the “cellular HbF concentration, folds” value in experiment [1] (0.1 μM) was found to be 1.52 folds. In addition, the “cellular HbF concentration, folds” value in experiment [1] (0.3 μM) was determined as 1.58 folds. Also, in experiment [1] (1.0 μM, maximal effect, p<0.01), the “cellular HbF concentration, folds” value came to 1.69 folds. This molecule also gave a colon length in experiment [2] (90 mg/kg po qd day −1 to day 6, day 7, vehicle 6.26±0.17 cm) of 8.79±0.22 cm. Moreover, the “pathological score (H&E, colon)” value in experiment [2] (90 mg/kg po qd day −1 to day 6, day 7, vehicle 10.33±0.35) is 1.70±0.37. The same molecule returned a colon weight in experiment [2] (90 mg/kg po qd day −1 to day 6, day 7, vehicle 336.8±26.68 mg) of 213.8 ± 6.08 mg. In addition, in experiment [2] (90 mg/kg po qd day −1 to day 6, end of experiment), the “anemia (red blood cells and hemoglobin in peripheral blood)” value is recorded as “improved”. Further, in experiment [2] (setting [3]), the “cell number of monocytes in peripheral blood” value is “significantly reduced” and the “cell number of neutrophils in peripheral blood” value is given as “significantly reduced”. In experiment [2] (90 mg/kg po qd day −1 to day 6, vehicle 4.33±0.30), the “fibrosis score (Masson's Trichrome, colon)” value is 1.10±0.17. Also, in experiment [2] (setting [4]), the DAI score result is “significantly reducing” and the body weight loss entry is “improving”. Moreover, in experiment [2] (setting [5]), the “percentage of IFN-γ secreting CD4+ T cells (Th1 cells) in MLN” value is listed as “significantly reduced”, the “percentage of NK cells in MLN” value is “significantly reduced”, the “percentage of activated NK cells in MLN” value is “significantly reduced” and the “percentage of macrophages in MLN” value was “significantly reduced”. For the same molecule, the “percentage of neutrophils in mesenteric lymph nodes (MLN)” value in experiment [2] (setting [5]) was “significantly reduced”.

These data come from patent US20240366611A1, “METHODS OF TREATING A DISEASE OR DISORDER” (Ascentage Pharma (Suzhou) Co., Ltd., priority 2021, published 2024).
